Laboratory results from PMC6355318 (Bioorganic & Medicinal Chemistry Letters, 2019).
≈ marks a conversion by molar mass, not a printed value.

Assays:
[1] = biological target: PfPKG (Plasmodium falciparum, UniProt Q8I719); assay: biochemical; assay type: biochemical; conditions: for LLE: LLE (pIC50 - mLogD); for IC50: recombinant kinase, read-out: PfPKG pIC50 (converted)
[2] = passive permeability, 5 hours at room temperature
[3] = Measured logD (shake flask); assay type: physicochemical; conditions: octanol/PBS
Protocol: LogD measurements were carried out using the shake flask method. […] The ratios of areas of the peaks were used to calculate the LogD in accordance with the equation:
LogD = Log10(Area-TL/Area BL)

[4] = % remaining after 30 mins, mouse liver microsomes, 1 μM
[5] = system: P. falciparum; assay: blood stage hypoxanthine incorporation (HXI) cell-based assay; conditions: Plasmodium falciparum, read-out: Pf HXI pEC50 (converted)
Text: [23] For full details on both biochemical assay and anti-malarial hypoxanthine incorporation (cell based) assay procedures, see reference 14.

[6] = Kinetic solubility; assay type: physicochemical; conditions: PBS pH 7.4 with 2% DMSO, PBS pH7.4, 98:2 PBS:DMSO, 90 minutes, target 200 μM

Sequence of PfPKG (Q8I719 whole entry): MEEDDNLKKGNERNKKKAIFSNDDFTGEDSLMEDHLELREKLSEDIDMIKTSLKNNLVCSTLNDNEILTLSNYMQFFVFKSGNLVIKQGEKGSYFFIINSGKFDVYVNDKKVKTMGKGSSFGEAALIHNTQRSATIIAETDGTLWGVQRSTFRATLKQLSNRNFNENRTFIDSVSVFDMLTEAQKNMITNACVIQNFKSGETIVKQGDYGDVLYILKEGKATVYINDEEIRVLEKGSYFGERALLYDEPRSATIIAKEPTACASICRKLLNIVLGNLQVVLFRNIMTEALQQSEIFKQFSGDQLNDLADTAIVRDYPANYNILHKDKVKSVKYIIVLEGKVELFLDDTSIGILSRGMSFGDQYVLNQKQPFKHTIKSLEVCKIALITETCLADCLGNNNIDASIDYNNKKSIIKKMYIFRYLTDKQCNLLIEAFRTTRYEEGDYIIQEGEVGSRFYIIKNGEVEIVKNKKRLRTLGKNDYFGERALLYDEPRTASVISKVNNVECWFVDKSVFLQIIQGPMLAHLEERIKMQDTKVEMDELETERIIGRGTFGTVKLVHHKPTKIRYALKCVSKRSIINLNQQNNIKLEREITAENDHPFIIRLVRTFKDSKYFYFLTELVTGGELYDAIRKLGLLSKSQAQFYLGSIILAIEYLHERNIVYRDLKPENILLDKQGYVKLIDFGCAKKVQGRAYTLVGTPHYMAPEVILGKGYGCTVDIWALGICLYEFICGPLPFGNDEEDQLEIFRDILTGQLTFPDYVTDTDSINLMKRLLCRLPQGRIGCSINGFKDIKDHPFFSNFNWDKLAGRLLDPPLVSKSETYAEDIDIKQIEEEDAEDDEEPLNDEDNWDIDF

SMILES	LLE [1]	IC50 [1] [nM]	fold less biochemically active ([1]; compared to 2) [fold]	PAMPA [2] [×10⁻⁶ cm/s]	mLogD [3]	MLM % rem [4] [%]	EC50 [5] [nM]	solubility kinetic at 1.5 h, 200 µM [6] [µM]
CN(C)CCNc1ccc2nc(-c3ccc(F)cc3)c(-c3ccnc(N)n3)n2n1 [Compound 26]		407		1	1.6	68		
CN1CCC(n2cc(Nc3nccc(-c4c(-c5ccc(F)cc5)nc5ccccn45)n3)cn2)CC1 [Compound 18]		100		12.4	2.7	37	575	237 (≈ 111 µg/mL)
Fc1ccc(-c2nc3ccccn3c2-c2ccnc(NC3CCOCC3)n2)cc1 [Compound 15]		132		14.5	1.8	84		
CN1CCC(c2ccc(Nc3nccc(-c4c(-c5ccc(F)cc5)nc5ccccn45)n3)cc2)CC1 [Compound 17]		5.01		0	3.3	55	158	
CN1CCN(c2ccc(Nc3nccc(-c4c(-c5ccc(F)cc5)nc5ccccn45)n3)cc2)CC1 [Compound 16]				0	4.0	65	115	9 (≈ 4.32 µg/mL)
CN(C)Cc1ccc2c(c1)nc(-c1ccc(F)cc1)n2-c1ccnc(N)n1 [Compound 23]		30.9		3.2	1.2	78		
CN(C)Cc1cc2nc(-c3ccc(F)cc3)c(-c3ccnc(N)n3)n2cn1 [Compound 19]		55		5.8	2.1	59	3720	
CN(C)Cc1ccn2c(-c3ccnc(N)n3)c(-c3ccc(F)cc3)nc2c1 [Compound 2, reference compound]		2					363	
CN(C)Cc1ccn2c(-c3ccnc(N)n3)c(-c3ccc(F)cc3)nc2n1 [Compound 20]		81.3		11.8	2.1	67	4070	
CN(C)Cc1ccc2c(-c3ccnc(N)n3)c(-c3ccc(F)cc3)nn2c1 [Compound 29]		4.07		18.5	2.5	22	513	

Further lines, with some results ahead:

LLE [1]	IC50 [1] [nM]	fold less biochemically active ([1]; compared to 2) [fold]	SMILES	PAMPA [2] [×10⁻⁶ cm/s]	mLogD [3]	MLM % rem [4] [%]	EC50 [5] [nM]	solubility kinetic at 1.5 h, 200 µM [6] [µM]
5.3	52.5		CN(C)Cc1ccn2c(-c3ccnc(N)c3)c(-c3ccc(F)cc3)nc2c1 [Compound 10]					
	851		CN(C)CCCNc1nccc(-c2c(-c3ccc(F)cc3)nc3ccccn23)n1 [Compound 14]	8.2	1.8	62		
	257		CN(C)Cc1ccn2c(-c3ccnc(Nc4ccc(N5CCNCC5)cc4)c3)c(-c3ccc(F)cc3)nc2c1 [Compound 11]					
5.1	120		CN(C)Cc1ccn2c(-c3cn[nH]c3)c(-c3ccc(F)cc3)nc2c1 [Compound 9]					
5.9	12		CN(C)Cc1ccn2c(-c3ccncn3)c(-c3ccc(F)cc3)nc2c1 [Compound 7, reference compound]					
4.2	77.6	~40	CN(C)Cc1ccn2c(-c3ccncc3)c(-c3ccc(F)cc3)nc2c1 [Compound 8]					
4.7	87.1		CN(C)Cc1ccn2c(-c3cc(N)ncn3)c(-c3ccc(F)cc3)nc2c1 [Compound 5]					
